{"source": "paper PMC4315625", "about": "(Cancer discovery, 2014)", "key": {"[1]": {"assay": "Preliminary clinical pharmacokinetics, AURA Phase 1", "format": "in vivo, human"}, "[2]": {"tested_on": "EGFR^L858R driven lung adenocarcinomas (C/L858R mice)", "assay": "C/L858R transgenic lung adenocarcinoma model"}, "[3]": {"tested_on": "mutant and wild-type EGFR cell lines", "assay": "Sytox phenotypic assay across cell lines", "format": "cell-based"}, "[4]": {"tested_on": "EGFR^L858R + T790M driven lung adenocarcinomas (C/L+T mice)", "assay": "C/L+T transgenic lung adenocarcinoma model", "settings": "AZD9291 5 mg/kg/day, afatinib 7.5 mg/kg/day, AZ5104 5 mg/kg/day; one to two weeks"}, "[5]": {"molecular_target": "EGFR variant III (EGFRvIII) (Homo sapiens, UniProt P00533, DELINS30-297G)", "assay": "Phospho-EGFR immunoblot in transfected 293 cells, EGFRvIII", "format": "cell-based", "settings": "6 hours"}, "[6]": {"molecular_target": "wild-type EGFR (A431, LOVO, NCI-H2073) (Homo sapiens, UniProt P00533)", "assay": "In vitro EGFR phosphorylation assay", "format": "cell-based", "settings": "read-out: potency against wild-type EGFR"}, "IGF-1R": {"molecular_target": "IGF-1R (Homo sapiens, UniProt P08069)", "sequence (P08069 31-1367, species assumed)": "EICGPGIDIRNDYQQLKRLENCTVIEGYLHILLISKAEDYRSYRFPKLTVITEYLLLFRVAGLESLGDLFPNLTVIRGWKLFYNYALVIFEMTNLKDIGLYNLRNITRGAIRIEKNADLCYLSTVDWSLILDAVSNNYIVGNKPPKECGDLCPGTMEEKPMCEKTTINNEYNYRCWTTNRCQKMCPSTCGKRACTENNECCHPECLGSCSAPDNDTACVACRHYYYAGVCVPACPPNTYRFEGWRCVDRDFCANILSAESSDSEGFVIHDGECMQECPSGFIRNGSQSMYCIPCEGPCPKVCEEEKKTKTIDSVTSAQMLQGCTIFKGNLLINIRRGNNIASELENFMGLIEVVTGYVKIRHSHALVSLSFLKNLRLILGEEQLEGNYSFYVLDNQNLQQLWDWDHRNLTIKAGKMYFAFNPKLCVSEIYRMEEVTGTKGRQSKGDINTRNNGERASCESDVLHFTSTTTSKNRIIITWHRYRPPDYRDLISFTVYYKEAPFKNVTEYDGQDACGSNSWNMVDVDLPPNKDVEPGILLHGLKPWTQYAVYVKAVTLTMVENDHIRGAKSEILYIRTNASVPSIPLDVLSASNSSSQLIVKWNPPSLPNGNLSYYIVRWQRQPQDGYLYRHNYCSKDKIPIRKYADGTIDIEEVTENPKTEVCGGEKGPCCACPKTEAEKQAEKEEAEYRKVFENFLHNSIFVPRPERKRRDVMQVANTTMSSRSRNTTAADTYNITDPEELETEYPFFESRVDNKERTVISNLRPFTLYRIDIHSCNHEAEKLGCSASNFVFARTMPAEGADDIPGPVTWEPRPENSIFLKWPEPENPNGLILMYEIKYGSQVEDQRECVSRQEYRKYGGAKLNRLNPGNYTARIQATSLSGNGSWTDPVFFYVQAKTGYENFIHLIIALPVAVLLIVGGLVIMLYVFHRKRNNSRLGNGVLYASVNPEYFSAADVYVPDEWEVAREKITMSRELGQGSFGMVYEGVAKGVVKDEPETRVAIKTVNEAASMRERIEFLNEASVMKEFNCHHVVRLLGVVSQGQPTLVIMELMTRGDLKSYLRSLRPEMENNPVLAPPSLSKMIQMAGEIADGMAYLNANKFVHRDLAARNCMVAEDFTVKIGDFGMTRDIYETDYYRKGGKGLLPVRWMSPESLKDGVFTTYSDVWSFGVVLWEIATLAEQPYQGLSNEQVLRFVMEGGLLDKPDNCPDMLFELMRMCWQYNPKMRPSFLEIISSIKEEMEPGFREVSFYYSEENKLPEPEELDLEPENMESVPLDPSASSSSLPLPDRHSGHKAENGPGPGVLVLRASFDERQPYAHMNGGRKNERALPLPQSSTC", "assay": "Cellular IGF-1R phosphorylation assay", "format": "cell-based", "settings": "cellular phosphorylation assay as surrogate"}, "HER2 (ErbB2)": {"molecular_target": "HER2 (ErbB2) (Homo sapiens, UniProt P04626)", "sequence (P04626 676-1255 limits assumed)": "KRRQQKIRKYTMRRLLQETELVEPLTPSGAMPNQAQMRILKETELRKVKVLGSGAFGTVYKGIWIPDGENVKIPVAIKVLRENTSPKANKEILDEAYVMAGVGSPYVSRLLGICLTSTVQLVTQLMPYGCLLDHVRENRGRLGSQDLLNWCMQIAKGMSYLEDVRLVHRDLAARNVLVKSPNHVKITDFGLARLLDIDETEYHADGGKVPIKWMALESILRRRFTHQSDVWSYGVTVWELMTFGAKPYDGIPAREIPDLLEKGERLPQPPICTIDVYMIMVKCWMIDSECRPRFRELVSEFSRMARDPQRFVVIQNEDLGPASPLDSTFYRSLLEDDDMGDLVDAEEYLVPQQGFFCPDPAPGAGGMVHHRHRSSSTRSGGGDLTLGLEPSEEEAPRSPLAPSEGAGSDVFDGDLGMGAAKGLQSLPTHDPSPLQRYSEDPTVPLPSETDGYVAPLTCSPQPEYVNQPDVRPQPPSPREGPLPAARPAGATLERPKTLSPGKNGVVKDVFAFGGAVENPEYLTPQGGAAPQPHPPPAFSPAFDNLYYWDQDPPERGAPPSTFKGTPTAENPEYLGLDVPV", "assay": "Cellular HER2 phosphorylation", "format": "cell-based", "settings": "three cellular approaches"}, "[7]": {"tested_on": "EGFR in mutant and wild-type cell lines", "assay": "In vitro EGFR phosphorylation assay, mutant and wild-type cell lines overall", "settings": "compared to AZD9291"}, "[8]": {"assay": "Pharmacokinetics after oral dosing in the mouse", "format": "in vivo"}, "[9]": {"tested_on": "Parental EGFRm+ lines (PC-9, H3255, HCC827, HCC4006, 11-18)", "assay": "Growth inhibition assay", "format": "cell-based", "settings": "independent laboratory"}, "[10]": {"tested_on": "approximately 280 other kinases", "assay": "Commercial biochemical kinome panel"}, "A431 xenografts": {"tested_on": "A431 xenografts", "settings": "5 mg/kg/day"}, "EBC-1 cells": {"tested_on": "EBC-1 cells", "assay": "Large cell panel proliferation profiling study", "format": "cell-based", "settings": "Homo sapiens, EBC-1, read-out: IC50, proliferation"}, "[11]": {"tested_on": "lines harboring EGFR T790M (H1975, HCC827/ER1, PC-9/BRc1 and H3255/XLR)", "settings": "independent laboratory"}, "[12]": {"assay": "Body weight of xenograft-bearing mice on daily dosing", "format": "in vivo, mouse", "settings": "daily dosing for 200 days, PC-9 and H1975 studies"}, "[13]": {"tested_on": "phospho-EGFR (Tyr1173) in H1975 xenografts", "assay": "Pharmacodynamics in H1975 xenografts", "format": "in vivo, mouse", "settings": "single dose 5 mg/kg"}, "[14]": {"tested_on": "H1781 cells (VC insertion at G776 in exon 20 of HER2)", "assay": "Growth inhibition of HER2 mutant H1781 cells", "format": "cell-based", "settings": "NCI-H1781, read-out: IC50, growth"}, "[15]": {"tested_on": "EGFR L861Q, G719S and exon 19 insertion (I744-K745insKIPVAI)", "assay": "Phospho-EGFR immunoblot in transfected 293 cells, rare sensitive mutants", "format": "cell-based", "settings": "6 hours"}, "[16]": {"tested_on": "phospho-EGFR and downstream markers", "settings": "5mg/kg dosing"}, "[17]": {"tested_on": "advanced EGFRm+ T790M NSCLC", "assay": "Radiographic tumor response", "format": "in vivo, human", "settings": "for tumor shrinkage: 20 mg once daily"}, "[18]": {"tested_on": "PC-9 (ex19del) tumor xenograft", "assay": "PC-9"}, "NCI-H820 cells": {"tested_on": "NCI-H820 cells", "assay": "Large cell panel proliferation profiling study", "format": "cell-based", "settings": "NCI-H820, read-out: IC50, proliferation"}, "[19]": {"assay": "Adverse events and blood glucose in two patients, AURA Phase 1", "format": "in vivo, human"}, "[20]": {"tested_on": "lines harboring non-T790M resistance: 11-18/ER (NRAS), HCC827/ER2 (MET amplification), HCC4006/ER (EMT)", "settings": "independent laboratory"}, "[21]": {"assay": "Blood glucose and insulin levels after single oral dose in rats", "format": "in vivo, rat", "settings": "single oral dose of 200 mg/kg, over a 24 hour period"}, "[22]": {"tested_on": "T790M EGFR cell lines (H1975, PC-9VanR)", "settings": "compared to AZD9291"}, "[23]": {"tested_on": "wild-type EGFR cell lines (Calu3, H2073)", "assay": "Sytox Green live/dead cell phenotype assay, wild-type EGFR lines", "format": "cell-based", "settings": "compared to AZD9291"}, "[24]": {"tested_on": "EGFR^L858R + T790M driven lung adenocarcinomas (C/L+T mice)", "settings": "cited from earlier work"}, "[25]": {"tested_on": "EGFR^L858R driven lung adenocarcinomas (C/L858R mice)", "settings": "cited from earlier work"}, "[26]": {"settings": "patients, AZD9291 mesylate 20 mg oral, preliminary"}}, "note": "Where two headings read alike, the source gives them in different places."}
{"molecule": "C=CC(=O)Nc1cc(Nc2nccc(-c3c[nH]c4ccccc34)n2)c(OC)cc1N(C)CCN(C)C", "note": "[AZ5104]", "values": [{"measurement": "half-life", "setting": "[1]; [26]", "result": "at least 50 hours"}, {"measurement": "tumor response", "setting": "[2]; AZ5104 5 mg/kg/day", "result": "effective in shrinking tumors"}, {"measurement": "potency across cell lines in phenotypic assay", "setting": "[3]; compared to AZD9291", "result": "much greater potency across cell lines"}, {"measurement": "tumor response", "setting": "[4]", "result": "effective in shrinking tumors"}, {"measurement": "potency against EGFRvIII mutant", "setting": "[5]", "result": "higher level of activity"}, {"measurement": "IC50", "setting": "[6]", "result": 33, "unit": "nM"}, {"measurement": "activity towards IGF-1R", "setting": "IGF-1R", "result": "did not exhibit significant activity"}, {"measurement": "inhibition of phosphorylation of HER2", "setting": "HER2 (ErbB2)", "result": "more potency than AZD9291"}]}
{"molecule": "C=CC(=O)Nc1cc(Nc2nccc(-c3cn(C)c4ccccc34)n2)c(OC)cc1N(C)CCNC", "note": "[AZ7550]", "values": [{"measurement": "potency and profile against mutant and wild-type cell lines", "setting": "[7]", "result": "very similar potency and profile to AZD9291"}, {"measurement": "half-life", "setting": "[1]; [26]", "result": "at least 50 hours"}, {"measurement": "potency across cell lines in phenotypic assay", "setting": "[3]", "result": "broadly similar"}, {"measurement": "total exposure levels (AUC) compared to the parent compound", "setting": "[8]; circulating metabolite in plasma", "result": "approximately 68%"}]}
{"molecule": "CNC(=O)CN1CCC(Oc2cc3c(Nc4cccc(Cl)c4F)ncnc3cc2OC)CC1", "note": "[AZD8931]", "values": [{"measurement": "sensitivity of parental EGFRm+ lines", "setting": "[9]", "result": "sensitive"}]}
{"molecule": "C=CC(=O)Nc1cc(Nc2nccc(-c3cn(C)c4ccccc34)n2)c(OC)cc1N(C)CCN(C)C", "note": "[AZD9291]", "values": [{"measurement": "off-target kinase activity / secondary target profile", "setting": "[10]; 1 μM", "result": "minimal off-target kinase activity"}, {"measurement": "inhibition at 1 μM", "setting": "[10]; ErbB2/4, ACK1, ALK, BLK, BRK, MLK1 and MNK2", "result": "greater than 60%"}, {"measurement": "tumor growth inhibition", "setting": "A431 xenografts", "result": "moderate tumor growth inhibition"}, {"measurement": "IC50", "setting": "EBC-1 cells", "result": "~1000", "unit": "nM"}, {"measurement": "activity against lines harboring EGFR T790M", "setting": "[11]", "result": "low nanomolar activity"}, {"measurement": "body weight loss", "setting": "[12]", "result": "less than 5 % of starting body weight"}, {"measurement": "sensitivity of parental EGFRm+ lines", "setting": "[9]", "result": "sensitive"}, {"measurement": "phospho-EGFR and downstream signalling", "setting": "[13]; after 6 hours", "result": "strongly inhibited"}, {"measurement": "phospho-EGFR staining", "setting": "[13]; after the 30 hour time point", "result": "remained significantly diminished"}, {"measurement": "half-life", "setting": "[1]; human, plasma, po, 20 mg", "result": "≥ 50", "unit": "h"}, {"measurement": "IC50", "setting": "[14]", "result": 80, "unit": "nM"}, {"measurement": "reduction in tumor volume by MRI", "setting": "[2]; AZD9291 5 mg/kg/day, afatinib 7.5 mg/kg/day, 5 of 5 mice", "result": "~80", "unit": "%"}, {"measurement": "effect on phospho-EGFR of L861Q, G719S and exon 19 insertion", "setting": "[15]", "result": "somewhat less potent compared with the AZ5104 metabolite"}, {"measurement": "target inhibition in treated tumors", "setting": "[16]", "result": "observed target inhibition"}, {"measurement": "duration of response", "setting": "[17]; both patients, 20 mg/day", "result": "approximately 9 months"}, {"measurement": "progression-free time", "setting": "[17]; both patients, 20 mg/day, RECIST 1.1", "result": "approximately 11 months"}, {"measurement": "tumor shrinkage", "setting": "[17]; first patient, scan 1", "result": 39.7, "unit": "%"}, {"measurement": "tumor shrinkage", "setting": "[17]; first patient, scan 2", "result": 48.3, "unit": "%"}, {"measurement": "tumor shrinkage", "setting": "[17]; first patient, scan 3", "result": 48.3, "unit": "%"}, {"measurement": "tumor shrinkage", "setting": "[17]; first patient, scan 4", "result": 48.3, "unit": "%"}, {"measurement": "tumor shrinkage", "setting": "[17]; first patient, scan 5", "result": 51.7, "unit": "%"}, {"measurement": "tumor shrinkage", "setting": "[17]; second patient, scan 1", "result": 38, "unit": "%"}, {"measurement": "tumor shrinkage", "setting": "[17]; second patient, scan 2", "result": 39.3, "unit": "%"}, {"measurement": "tumor shrinkage", "setting": "[17]; second patient, scan 3", "result": 56.7, "unit": "%"}, {"measurement": "tumor shrinkage", "setting": "[17]; second patient, scan 4", "result": 62, "unit": "%"}, {"measurement": "tumor shrinkage", "setting": "[17]; second patient, scan 5", "result": 59.3, "unit": "%"}, {"measurement": "tumor response", "setting": "[4]", "result": "significant tumor shrinkage"}, {"measurement": "tumors with no visible tumor", "setting": "[18]; following 40 daily doses with 5 mg/kg, sustained out to 200 days", "result": "8 of 8"}, {"measurement": "lowest dose with tumor shrinkage observed", "setting": "[18]; once daily, after 14 days", "result": 2.5, "unit": "mg/kg/day"}, {"measurement": "bioavailability", "setting": "[8]", "result": "good bioavailability"}, {"measurement": "clearance", "setting": "[8]", "result": "moderate clearance"}, {"measurement": "tissue distribution", "setting": "[8]", "result": "widely distributed in tissues"}, {"measurement": "half-life", "setting": "[8]; plasma, po", "result": "~3", "unit": "h"}, {"measurement": "IC50", "setting": "NCI-H820 cells", "result": "~1000", "unit": "nM"}, {"measurement": "diarrhea events", "setting": "[19]; 20 mg once daily", "result": "one reported CTCAE Grade 1 diarrhea"}, {"measurement": "rash events", "setting": "[19]; 20 mg once daily", "result": "no rash events"}, {"measurement": "blood glucose levels", "setting": "[19]; during the study", "result": "No significant aberration"}, {"measurement": "activity towards IGF-1R", "setting": "IGF-1R", "result": "did not exhibit significant activity"}, {"measurement": "activity against lines harboring non-T790M resistance", "setting": "[20]", "result": "not effective"}, {"measurement": "inhibition of phosphorylation of HER2", "setting": "HER2 (ErbB2)", "result": "moderate potency levels"}, {"measurement": "change in blood glucose or insulin levels", "setting": "[21]", "result": "did not cause a significant change"}]}
{"molecule": "COc1cc2ncnc(Nc3ccc(F)c(Cl)c3)c2cc1NC(=O)/C=C/CN1CCCCC1", "note": "[dacomitinib]", "values": [{"measurement": "activity against T790M lines, Sytox", "setting": "[22]", "result": "much less activity against T790M lines"}, {"measurement": "potency towards wild-type EGFR, Sytox", "setting": "[23]", "result": "much greater potency towards wild-type EGFR"}]}
{"molecule": "C#Cc1cccc(Nc2ncnc3cc(OCCOC)c(OCCOC)cc23)c1", "note": "[erlotinib]", "values": [{"measurement": "sensitivity of parental EGFRm+ lines", "setting": "[9]", "result": "sensitive"}, {"measurement": "tumor sensitivity", "setting": "[24]", "result": "resistant"}, {"measurement": "tumor sensitivity", "setting": "[25]", "result": "sensitive"}]}
{"molecule": "COc1cc2ncnc(Nc3ccc(F)c(Cl)c3)c2cc1OCCCN1CCOCC1", "note": "[gefitinib, reference compound]", "values": [{"measurement": "time until tumors began to re-grow", "setting": "[18]; 6.25 mg/kg/day", "result": "approximately 90 days"}, {"measurement": "tumor regression", "setting": "[18]; 6.25 mg/kg/day, compared with AZD9291 5 mg/kg", "result": "less tumor regression"}]}
